Assay results as given in patent US20260263643A1, “BI-SPECIFIC ADAPTERS AND THEIR USE WITH UNIVERSAL CAR-T CELLS IN THE TREATMENT OF CAIX-EXPRESSING TUMORS” (Purdue Research Foundation, priority 2023, published 2026).
“Also recorded” adds a separate entry of the source.

Tests used:
MDA-CAIX tumor cells = assay: Retention and surface exposure of CAIX bispecific adapters in MDA-CAIX tumor cells from treated mice; assay type: in vivo, mouse; settings: for CAIX levels of tumor cells (MFI of FITC after staining with 100 nM meta-CAL-PEG6-FITC in vitro): MDA-CAIX tumors from treated mice, FIG. 11C
Method: MDA-CAIX tumors from mice in different treatment groups were dissected and digested into single cells 24 hours after the last injections with CAIX bispecific adapters at 500 nmol/kg. The total retention of the bispecific adapters was determined by the FITC fluorescence intensity analyzed by flow cytometry. To estimate the CAIX protein levels in the tumor cells, the cells were stained with 100 nM meta-CAL-PEG6-FITC for 1 hour at room temperature and analyzed by flow cytometry. The FITC exposure of the bispecific adapters on the tumor cell surface was analyzed by flow cytometry after staining with APC-anti-FITC antibody on ice for 30 minutes. Surface exposure of FITC was also analyzed in the cells stained with 100 nM meta-CAL-PEG6-FITC.

HT29 cells = assay: Total binding and FITC surface exposure of CAIX bispecific adapters on HT29 cells; assay type: cell-based; settings: 1 μM adapter, 1 hour room temperature; FIG. 3A
Method: (§1) HT29 cells or MDA-CAIX cells were incubated with 1 μM bispecific adapters with different ligands to CAIX and different polyethylene glycol (PEG) linkers in complete RPMI medium (RPMI+10% FBS) for one hour at room temperature. Free compounds were washed away, and fluorescent intensity of fluorescein isothiocyanate (FITC) was analyzed by flow cytometry.
(§2) To analyze the surface exposure of the FITC moiety, the stained cells were incubated with allophycocyanin (APC)-anti-FITC antibody on ice for 30 minutes. Then the cells were washed, and the fluorescent intensity of APC was analyzed by flow cytometer.

MDA-CAIX cells [1] = assay: Total binding and FITC surface exposure of CAIX bispecific adapters on MDA-CAIX cells; assay type: cell-based; settings: 1 μM adapter, 1 hour room temperature; FIG. 3C
Method: as §1, §2

HT29 tumor = assay: In vivo efficacy of CAIX targeting bispecific adapters on HT29 tumor model; set-up: species or system mouse; settings: NSG mice, subcutaneous HT29, 10 million anti-FITC CAR-T cells plus adapter; FIG. 7B
Method: (§3) HT29 cells (1.5 million) were implanted into each NOD scid gamma (NSG) mouse by subcutaneous injection. When the tumor volumes reached about 100 mm^3, the treatment groups were injected with 10 million anti-FITC CAR-T cells and bispecific adapters as shown in FIG. 7A. The tumor volume and body weight were monitored regularly. Tumor volume was calculated using the formular: (length*width^2)/2.

MDA-CAIX tumors = assay: In vivo efficacy of CAIX targeting bispecific adapters on MDA-CAIX tumor model; set-up: species or system mouse; settings: NSG mice, subcutaneous MDA-CAIX, 10 million anti-FITC CAR T-cells plus adapter; FIG. 10B
Method: (§4) MDA-CAIX cells (5 million) were implanted into each NSG mouse by subcutaneous injection. When the tumor volumes reached about 100 mm^3, the treatment groups were injected with 10 million anti-FITC CAR T-cells and indicated bispecific adapters as shown in FIG. 10A. The tumor volume and body weight were monitored regularly. Tumor volume was calculated using the formular: (length*width^2)/2.

HT29 tumor cells = assay: Retention and surface exposure of CAIX bispecific adapters in HT29 tumor cells from injected mice; assay type: in vivo, mouse; settings: 500 nmol/kg, 24 hours after injection, APC-anti-FITC staining; FIG. 8C
Method: HT29 tumor bearing mice were injected with CAIX bispecific adapters at 500 nmol/kg. After injection (24 hours later), the tumors were dissected and digested into single cells. The total retention of the bispecific adapters was determined by the FITC fluorescence intensity analyzed by flow cytometry. To analyze the FITC exposure of the bispecific adapters on the tumor cell surface, the digested tumor cells were stained with APC-anti-FITC antibody on ice for 30 minutes. After washing away unbound antibody, the fluorescent intensity of APC was analyzed by flow cytometry.

[2] = test system: anti-FITC CAR-T cells co-cultured with MDA-CAIX cells; assay: Bispecific adapter mediated IFNγ release from anti-FITC CAR-T cells co-cultured with MDA-CAIX cells (ELISA); assay type: cell-based; settings: adapter concentration between 0.001 nM and 1 nM; MDA-CAIX co-culture; FIGS. 4B, 5B
Method: (§5) Anti-FITC CAR-T cells were incubated with an equal number of MDA-CAIX cells in the presence of bispecific adapters at different concentrations. The number of MDA-CAIX cells was determined at the end of the co-culture, and the percentage of cell lysis was calculated using the following formula: [(number of untreated cells−number of treated cells)/number of untreated cells]*100%.
Secretion of interferon gamma (IFNγ) from anti-FITC CAR-T cells was analyzed by enzyme-linked immunosorbent assay (ELISA) using the supernatants of the co-cultured medium at the end of the co-culture.
Secretion of IFNγ from anti-FITC CAR T cells was analyzed by ELISA using the supernatants of the co-cultured medium at the end of the co-culture.
Secretion of IFNγ from anti-FITC CAR T cells was analyzed by ELISA using the supernatants of the co-cultured medium at the end of the co-culture study.

MDA-CAIX cells [3] = assay: Bispecific adapter mediated anti-FITC CAR-T cell cytotoxicity to MDA-CAIX cells; assay type: cell-based
Method: as §5
as §5, with “presence of the bispecific adapters” for “presence of bispecific adapters”
Anti-FITC CAR T cells were incubated with an equal number of MDA-CAIX cells in the presence of the bispecific adapters at different concentrations. The number of MDA-CAIX cells were determined at the end of the co-culture and the percentage of cell lysis was calculated using the following formula: [(number of untreated cells−number of treated cells)/number of untreated cells]*100%.

T cells = assay: T cell counts in the blood and HT29 tumors from mice at end of treatments; set-up: species or system mouse; settings: end of HT29 in vivo study
Method: At the end of the in vivo study on HT29 solid tumor model described in FIGS. 7A-7C, blood was collected from the mice, and the red blood cells in the blood were lysed by using red blood cell lysis buffer (BioLegend, San Diego, CA). The remaining cells were stained with anti-human CD3 antibody on ice for 30 minutes. The number of T cells was analyzed by flow cytometry. To analyze tumor-infiltrated T cells, tumors were dissected and digested to single cells. The digested cells were stained with Zombie Violet cell viability staining dye (BioLegend. San Diego, CA) and anti-human CD3 antibody. The percentage of CD3 T cells in total live cells was analyzed by flow cytometry.

[4] = Body weight change of mice in HT29 tumor model; assay type: in vivo, mouse; settings: HT29 tumor-bearing NSG mice treated with anti-FITC CAR-T cells plus adapter; FIG. 7C
Method: as §3

[5] = test system: anti-FITC CAR-T cells co-cultured with HT29 cells; assay: Bispecific adapter mediated anti-FITC CAR-T cell IFNγ release when co-cultured with HT29 cells (ELISA); assay type: cell-based; settings: HT29 cells at 1:5 ratio, 40 hours
Method: (§6) Anti-FITC CAR-T cells were incubated with HT29 cells at 1:5 ratio in the presence of the bispecific adapters at different concentrations for 40 hours. Secretion of IFNγ from anti-FITC CAR-T cells was analyzed by ELISA using the supernatants of the co-cultured medium at the end of the co-culture study.
as §6, with “CAR T” for “CAR-T”

[6] = Body weight change of mice in KB tumor model; assay type: in vivo, mouse; settings: KB tumor-bearing NSG mice; FIG. 16C
Method: as §4, with “KB” for “MDA-CAIX”, “(1” for “(5”, “50” for “100”, “CAR-T cells” for “CAR T-cells”, “16A.” for “10A.”, “formula:” for “formular:”

[7] = low concentrations (between 0.001 nM and 0.1 nM), FIG. 5A

Compound | CAIX levels of tumor cells (MFI of FITC after staining with 100 nM meta-CAL-PEG6-FITC in vitro) (MDA-CAIX tumor cells) | total binding to HT29 cells (MFI of FITC) (HT29 cells) | growth of HT29 tumor (tumor volume) (HT29 tumor) | growth of MDA-CAIX tumors (tumor volume) (MDA-CAIX tumors) | surface retention and FITC exposure in HT29 tumors (MFI of APC-anti-FITC) (HT29 tumor cells) | IFNγ release from anti-FITC CAR-T cells [2] | efficacy of anti-FITC CAR-T cell cytotoxicity, lysis (%) (MDA-CAIX cells [3]; [7]) | other results
NS(=O)(=O)c1nnc(NC(=O)CCCCCCCNC(=S)Nc2ccc(-c3c4ccc(=O)cc-4oc4cc(O)ccc34)c(C(=O)O)c2)s1 [Aza-FITC] | slightly higher CAIX levels than tumors treated with meta-CAL-FITC with PEG3 or PEG6 | better total binding to HT29 cells than the other adapters | slightly inhibited the growth of HT29 tumor | – | – | – | – | total binding to MDA-CAIX cells (MFI of FITC) (MDA-CAIX cells [1]): better total binding to MDA-CAIX cells
NS(=O)(=O)c1c(F)c(F)c(S(=O)(=O)CCC(=O)NCCOCCOCCOCCNC(=S)Nc2ccc(-c3c4ccc(=O)cc-4oc4cc(O)ccc34)c(C(=O)O)c2)c(NC2CCCCCCC2)c1F [meta-CAL-PEG3-FITC] | – | better total binding to HT29 cells than the other adapters | slightly inhibited the growth of HT29 tumor | slightly inhibited the growth of MDA-CAIX tumors | – | – | – | –
NS(=O)(=O)c1c(F)c(F)c(S(=O)(=O)CCC(=O)NCCOCCOCCOCCOCCOCCOCCNC(=S)Nc2ccc(-c3c4ccc(=O)cc-4oc4cc(O)ccc34)c(C(=O)O)c2)c(NC2CCCCCCC2)c1F [meta-CAL-PEG6-FITC] | – | – | – | – | better FITC exposure than meta-CAL-PEG3-FITC | higher level of IFNγ release from anti-FITC CAR-T cells than ortho-CAL-PEG6-FITC and Aza-FITC; also recorded: higher levels of IFNγ release from anti-FITC CAR-T cells than meta-CAL-PEG3-FITC | higher efficacy than meta-CAL-PEG3-FITC | surface retention and FITC exposure in MDA-CAIX tumors (MFI of APC-anti-FITC) (MDA-CAIX tumor cells; 24 hours after last injection at 500 nmol/kg, FIG. 11D): slightly better surface retention and FITC exposure than the other compounds; efficacy of anti-FITC CAR-T cell cytotoxicity, lysis (%) (MDA-CAIX cells [3]; adapter between 0.001 nM and 10 nM, equal number of CAR-T and MDA-CAIX cells, FIG. 4A): higher than ortho-CAL-PEG6-FITC and Aza-FITC
NS(=O)(=O)c1c(F)c(F)c(S(=O)(=O)CCC(=O)NCCOCCOCCOCCOCCOCCOCCOCCOCCOCCNC(=S)Nc2ccc(-c3c4ccc(=O)cc-4oc4cc(O)ccc34)c(C(=O)O)c2)c(NC2CCCCCCC2)c1F [meta-CAL-PEG9-FITC] | – | – | significantly inhibited the growth of HT29 tumor | – | better FITC exposure than meta-CAL-PEG3-FITC | higher levels of IFNγ release from anti-FITC CAR-T cells than meta-CAL-PEG3-FITC | higher efficacy than meta-CAL-PEG3-FITC | T cell counts in blood (T cells; anti-human CD3 staining, FIG. 9A): more T cells than the blood from other treatment groups; tumor-infiltrated T cells (CD3+ T cells/live cells) (T cells; digested tumors, FIG. 9B): more tumor-infiltrated T cells; body weight change [4]: lost body weight; IFNγ released from anti-FITC CAR-T cells ([5]; low concentrations (<0.1 nM), FIG. 15): highest level of IFNγ released from anti-FITC CAR-T cells
NS(=O)(=O)c1c(F)c(F)c(SCCC(=O)NCCOCCOCCOCCOCCOCCOCCNC(=S)Nc2ccc(-c3c4ccc(=O)cc-4oc4cc(O)ccc34)c(C(=O)O)c2)c(F)c1NC1CCCCCCC1 [ortho-CAL-PEG6-FITC] | complete eradication of CAIX^+ tumor cells by CAR T cells | – | – | significantly inhibited the growth of MDA-CAIX tumors | – | – | – | body weight change [6]: did not induce significant body weight loss; also recorded: didn't induce significant body weight loss; staining of anti-FITC antibody (MFI of APC-anti-FITC after staining with 100 nM meta-CAL-PEG6-FITC in vitro) (MDA-CAIX tumor cells; MDA-CAIX tumor cells from treated mice, FIG. 11E): almost no staining of anti-FITC antibody; IFNγ released from anti-FITC CAR-T cells ([5]; ELISA, FIGS. 14, 15): lower levels of IFNγ released from anti-FITC CAR-T cells
